Reference: ChEMBL document CHEMBL5053510, “Discovery of AS-1763: A Potent, Selective, Noncovalent, and Orally Available Inhibitor of Bruton's Tyrosine Kinase” (J Med Chem, 2021)

Molecular target: Tyrosine-protein kinase BTK (Homo sapiens, UniProt Q06187)
Assay: Inhibition of human BTK-A using phosphorylated substrate in presence of ATP by microplate reader assay

Chain of Tyrosine-protein kinase BTK (Q06187 whole entry): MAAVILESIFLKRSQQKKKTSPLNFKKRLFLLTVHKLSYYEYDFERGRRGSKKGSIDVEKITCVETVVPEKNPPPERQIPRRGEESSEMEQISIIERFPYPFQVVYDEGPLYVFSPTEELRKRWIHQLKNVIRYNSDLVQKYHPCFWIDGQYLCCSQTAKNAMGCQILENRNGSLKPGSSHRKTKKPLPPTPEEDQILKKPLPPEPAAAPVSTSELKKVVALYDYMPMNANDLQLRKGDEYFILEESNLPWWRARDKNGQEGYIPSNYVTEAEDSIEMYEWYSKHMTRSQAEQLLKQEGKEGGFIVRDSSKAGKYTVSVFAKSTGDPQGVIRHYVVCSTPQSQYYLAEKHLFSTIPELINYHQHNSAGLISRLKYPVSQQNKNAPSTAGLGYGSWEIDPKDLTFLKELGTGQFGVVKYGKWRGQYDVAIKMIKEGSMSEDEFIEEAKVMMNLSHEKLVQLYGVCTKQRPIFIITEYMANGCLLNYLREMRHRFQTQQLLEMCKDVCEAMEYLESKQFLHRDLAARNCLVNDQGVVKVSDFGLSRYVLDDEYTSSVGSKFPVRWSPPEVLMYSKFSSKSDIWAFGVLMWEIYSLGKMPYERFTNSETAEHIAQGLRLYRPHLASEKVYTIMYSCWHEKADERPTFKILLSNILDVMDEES

IC50: 0.65 nM
Compound: CN1CCN(C(=O)N2CC=C(c3cc4c(-c5cccc(-n6ccc7cc(C8CC8)cc(F)c7c6=O)c5CO)nc(N)nc4[nH]3)CC2)CC1
